Results taken from patent US20160228444A1, “NUCLEOSIDE ANALOGS AND USES THEREOF” (Ramot at Tel-Aviv University Ltd., priority 2015, published 2016).

What was measured:
pH2AX in H9C2 cells = assay: Phosphorylated H2AX (Western blot), 24 or 48 hours; format: cell-based, rat; conditions: FIG. 13B
Protocol: The effects of the abovementioned HDAC inhibitors on DNA damage and repair were then assessed by evaluating changes in levels of phosphorylated histone H2AX (pH2AX), a marker of DNA double-strand breaks, and Rad51, a marker of homologous recombination-guided DNA repair of double-strand breaks [Nagathihalli & Nagaraju, Biochim Biophys Acta 2011, 1816:209-218; Rogakou et al., J Biol Chem 1998, 273:5858-5868].
U251 and H9C2 cells were treated with the HDAC inhibitors for 24 or 48 hours, and then subjected to Western blot analysis.

primary rat astrocytes = format: cell-based; conditions: noncancerous cells; combination compared to Dox alone; FIG. 1C
Protocol: Cell viability by flow cytometry analysis (FACS) analysis was determined using the Mebcyto apoptosis kit (MBL-Japan). The cell lines 4T1, U251 (2×10^5 cells/well), astrocytes and the cardiomyoblastic cell line H9C2 (5×10^5 cells/well) were seeded in six-well plates. Following treatment they were trypsinized, washed with PBS, resuspended in […] of binding buffer and double-stained with annexin V-FITC and propidium iodide (PI) according to the manufacturer's instructions. The stained cells were subjected to FACS analyses (Calibur cytometer, Becton Dickinson) where 30,000 cells were allowed to flow for each determination point and the percentage of cells in each state (viability or death) was defined by their distribution in fluorescence dot-plots using WinMdi 2.8 software (Scripps Research Institute, La-Jolla, USA).
The apoptotic effect of AN446, Dox and their combination was evaluated in U251 and 4T1 cancer cells, and in the non-cancerous rat cardiomyoblast cell line (H9C2) and in primary rat astrocytes, using procedures previously described for AN7 [Tarasenko et al., Invest New Drugs 2012, 30:130-143].

[1] = test system: HDACs of classes I and II; assay: HDAC activity in intact cells (Fluor de Lys kit); format: cell-based, human; conditions: both U251 and Daudi cells, 2 h, FIG. 1B
Protocol: U251 or Daudi cells seeded in 96-well plates (10^4 cells/well, in quadruplicates) in growth medium for 24 h were then treated as indicated for 2 h in the presence of the HDAC substrate (Fluor de Lys™). The reaction was terminated by the addition of the Fluor de Lys™ developer (Biomol Research Labs) and […] trichostatin A (TSA). All of the above reagents were included in a kit for measuring activities of HDACs of classes I and II (AK-503, Biomol Research Labs). The percentage inhibition was calculated from the ratio of the fluorescence (measured at 355 nm excitation and at 460 nm emission) in the drug treated compared with the untreated control culture.

TLR4 = TLR4 gene expression in MDA-MB-231 cells (qRT-PCR); format: cell-based, human; conditions: FIG. 7C
Protocol: The effect of AN446 on inflammation-associated pathways was evaluated in the monocytic THP1 cell line and in the MDA-MB-231 breast carcinoma cell line. Supernatants of treated THP1 cells were collected and IL-6, IL-10 and TNF-α concentrations were quantified by ELISA (R&D systems). TLR4 expression in THP1 cells was assessed using fluorescent anti-TLR4 antibodies and FACS analysis. In addition, gene expression for MCP-1, TNF-α and TLR4 in MDA-MB-231 was evaluated by qRT-PCT, following treatment with AN446 and/or paclitaxel.

CCCC(CCC)C(=O)Nc1nc2c(ncn2COCCOC(=O)C(CCC)CCC)c(=O)[nH]1 [AN446, N-valproyl-9-(2-valproyloxy)ethoxymethyl-guanine]
pH2AX levels in cardiomyocytes (H9C2) (pH2AX in H9C2 cells): did not increase pH2AX levels | viability / mortality of astrocytes (primary rat astrocytes): did not substantially affect the viability | potency as HDAC inhibitor relative to AN7 [1]: 2-3 fold | paclitaxel-induced increase in expression of TLR4 (TLR4; combination with paclitaxel): significantly attenuated | expression of TLR4 (TLR4; single agent): reduced expression of TLR4
